Reference: patent US20100240758A1, “EXTERNAL PREPARATION FOR PERCUTANEOUS ADMINISTRATION CONTAINING NONSTEROIDAL ANTI-INFLAMMATORY ANALGESIC” (Hisamitsu Pharmaceutical Co., Inc., priority 2003, published 2010)

Experiments:
[1] = test system: Hartley white female guinea pig; assay: In vivo photoallergy test 2 (skin photoallergy test, Adjuvant and Strip Method); settings: 2% KP + 2% test substance, toward KP group
Procedure: A skin photoallergy test using a guinea pig was carried out by partially refining the Adjuvant and Strip Method of Sato et al., (The Nishinihon Journal of Dermatology, 42, 831-837 (1980)). That is, the back of the neck of a Hartley white female guinea pig (a group of 8 animals) was depilated, an adjuvant was administered to four corners of 2×2 cm, a 2% ethanol solution of ketoprofen (KP) or a solution of 2% KP+2% test substance {4-tert-butyl-4′-methoxydibenzoylmethane ([…])} was openly applied to the 2×2 cm area, and 1 hour later it was irradiated with UVA (10 J/cm^2). This sensitization induction treatment was carried out for 5 days in succession. 3 weeks after starting the sensitization, the back of the hip was depilated, the same solution as for the sensitization was openly applied to a 2×2 cm area, and 1 hour later it was irradiated with UVA (10 J/cm^2) to thus carry out a photoinduction. A skin reaction 24 and 48 hours after the irradiation was evaluated in accordance with the above-mentioned criteria of Sato et al. The effect of BM-DBM in suppressing photoallergy due to KP was evaluated by erythema and swelling suppression rates (%) toward the KP group.

Balb/c mouse [2] = assay: In vivo photoallergy test 1 (refined Murine Local Lymph Node Assay, 3H-TdR uptake); settings: UVA 20 J/cm^2, 3 days, toward KP group
Procedure: A KP photoallergy detection test was carried out by refining the Murine Local Lymph Node Assay (LLNA) proposed by the Interagency Coordinating Committee on the Validation of Alternative Methods (ICCVAM). That is, a Balb/c mouse (female, 8 to 12 weeks old) was used as a test animal, a solution of a test substance {4-tert-butyl-4′-methoxydibenzoylmethane (BM-DBM)} and 2% ketoprofen (KP) prepared in acetone—olive oil (4:1, v/v) was applied to the back of the pinna, and it was irradiated with UVA at 20 J/cm^2. This sensitization induction treatment was carried out for 3 days in succession. 5 days after starting the sensitization, 20 μCi per mouse of ^3H-methyl thymidine (^3H-TdR)/PBS solution was injected into the tail vein, and 5 hours later an auricular lymph node was removed. The removed lymph node was made into a single lymph cell suspension using a cell strainer, and after washing twice with PBS was then allowed to stand in a 5% trichloroacetic acid (TCA) solution at 4° C. overnight to thus make DNA precipitate. After the precipitate was suspended in 1 mL of 5% TCA solution, the radioactivity was measured using a liquid scintillation counter. The effect of the test substance in suppressing photoallergy due to KP was evaluated using as an index the degree of suppression of the increase in ^3H-TdR uptake by KP, that is, the ^3H-TdR uptake suppression rate (%) toward the KP group.

Balb/c mouse [3] = assay: In vivo phototoxicity test (auricular light irradiation, ear swelling due to ketoprofen); settings: UVA 40 J/cm^2, 24 hours after irradiation, toward KP group
Procedure: The experiment below was carried out by partially refining the method of Gerberick et al., (Food Chem. Toxicol., 27, 813-819 (1989)). That is, a Balb/c mouse (female, 9 to 11 weeks old) was used as a test animal, each of the test substances {4-tert-butyl-4′-methoxydibenzoylmethane (BM-DBM), 2-ethylhexyl dimethoxybenzylidenedioxoimidazolidine propionate (DB-DIH), terephthalylidene-3,3′-dicamphor-10,10′-disulfonic acid (TP-DCS), n-hexyl 2-(4-diethylamino-2-hydroxybenzoyl)benzoate (DHB-BH)} and 2% ketoprofen (KP) were dissolved in ethanol and applied to the auricle, and it was irradiated with UVA at 40 J/cm^2. 24 hours after UVA irradiation, the ear thickness was measured, and an increase from the ear thickness prior to the start of the test was calculated. The effect in suppressing phototoxicity due to KP was evaluated for each test substance using as an index the degree of suppression of the increase in ear thickness due to KP, that is, the ear swelling suppression rate (%) toward the KP group.

[4] = test substance 0.5% with 2% KP in ethanol on auricle

COc1ccc(C(=O)CC(=O)c2ccc(C(C)(C)C)cc2)cc1 [BM-DBM, 4-tert-butyl-4′-methoxydibenzoylmethane]
Erythema/Swelling Suppression Rate (%) After 24 Hr ([1]; UVA 10 J/cm^2, 24 hours after photoinduction irradiation): 69% | Erythema/Swelling Suppression Rate (%) After 48 Hr ([1]; UVA 10 J/cm^2, 48 hours after photoinduction irradiation): 74% | ^3H-TdR Uptake Suppression Rate (%) (Balb/c mouse [2]; BM-DBM 0.06% with 2% KP in acetone-olive oil): 30% | ^3H-TdR Uptake Suppression Rate (%) (Balb/c mouse [2]; BM-DBM 0.13% with 2% KP in acetone-olive oil): 51% | ^3H-TdR Uptake Suppression Rate (%) (Balb/c mouse [2]; BM-DBM 0.25% with 2% KP in acetone-olive oil): 24% | ^3H-TdR Uptake Suppression Rate (%) (Balb/c mouse [2]; BM-DBM 0.50% with 2% KP in acetone-olive oil): 94% | ^3H-TdR Uptake Suppression Rate (%) (Balb/c mouse [2]; BM-DBM 1.00% with 2% KP in acetone-olive oil): 99% | Ear Swelling Suppression Rate (%) (Balb/c mouse [3]; test substance 0.1% with 2% KP in ethanol on auricle): 41% | Ear Swelling Suppression Rate (%) (Balb/c mouse [3]; test substance 0.3% with 2% KP in ethanol on auricle): 81% | Ear Swelling Suppression Rate (%) (Balb/c mouse [3]; [4]): 98%

CCCCC(CC)COC(=O)CCN1C(=O)NC(=Cc2ccc(OC)c(OC)c2)C1=O (stereo not shown) [DB-DIH, 2-ethylhexyl dimethoxybenzylidenedioxoimidazolidine propionate]
Ear Swelling Suppression Rate (%) (Balb/c mouse [3]; [4]): 34%

CCCCCCOC(=O)c1ccccc1C(=O)c1ccc(N(CC)CC)cc1O [DHB-BH, n-hexyl 2-(4-diethylamino-2-hydroxybenzoyl)benzoate]
Ear Swelling Suppression Rate (%) (Balb/c mouse [3]; [4]): 84%

CC1(C)C2CCC1(CS(=O)(=O)O)C(=O)/C2=C\c1ccc(/C=C2/C(=O)C3(CS(=O)(=O)O)CCC2C3(C)C)cc1 [TP-DCS, terephthalylidene-3,3′-dicamphor-10,10′-disulfonic acid]
Ear Swelling Suppression Rate (%) (Balb/c mouse [3]; [4]): 65%
